The source of these data is patent US8513276B2, “Imidazo[1,2-a]pyridine compounds for use in treating cancer” (Astex Therapeutics Limited, priority 2006, dated 2013).

In experiment [1] the target is T1, FGFR3 (Homo sapiens, UniProt P22607).
T1 construct: Enzymes (from Upstate) were prepared at 2× final concentration in 1× kinase assay buffer; purchased Upstate
The experiment is described as follows: FGFR3 in vitro kinase inhibitory activity assay (TRF). In kind it is biochemical. The method, then: Enzymes (from Upstate) were prepared at 2× final concentration in 1× kinase assay buffer (as described below). Enzymes were then incubated with test compounds, biotinylated Flt3 substrate (biotin—DNEYFYV) (Cell Signalling Technology Inc.) and ATP. The reaction was allowed to proceed for 3 hours (FGFR3) or 2.5 hrs (PDGFR-beta) at room temperature on a plate shaker at 900 rpm before being stopped with 20 μl of 35 mM EDTA, pH 8 (FGFR3) or 55 mM EDTA, pH 8 (PDGFR-beta). Twenty μl of 5× detection mix (50 mM HEPES pH 7.5, 0.1% BSA, 2 nM Eu-anti-pY (PY20) (PerkinElmer) 15 nM SA-XL665 (Cisbio) for FGFR3 and 50 mM HEPES, pH 7.5, 0.5 M KF, 0.1% BSA, 11.34 nM Eu-anti-pY (PT66) (PerkinEimer), 94 nM SA-XL665 (Cisbio) for PDGFR-beta) was then added to each well and the plate sealed and incubated at room temperature for one hour on a plate shaker at 900 rpm. The plate was then read on a Packard Fusion plate reader in TRF mode.
Kinase Assay buffers were:
A: 50 mM HEPES pH 7.5, 6 mM MnCl2, 1 mM DTT, 0.1% TritonX-100

The test system of experiment [2] is LP-1 cell line. The experiment is described as follows: Cell-based pERK ELISA in LP-1 multiple myeloma cells. The note with it: Homo sapiens. The procedure:
LP-1 or JIM-1 multiple myeloma cells were seeded in 96 well plates at 1×10^6 cells/ml in 200 μl per well in serum free media. HUVEC cells were seeded at 2.5×10^5 cells/ml and allowed to recover for 24 h prior to transfer to serum free media. Cells were incubated for 16 h at 37° C. prior to the addition of a test compound for 30 minutes. Test compounds were administered at a 0.1% final DMSO concentration. Following this 30 minute incubation a FGF-1/Heparin (FGF-1 at 100 ng/ml final and Heparin at 100 ug/ml) mixture or VEGF^165 ([…]) was added to each of the wells for a further 5 minutes. The media was removed and 50 ul ERK ELISA lysis buffer (R and D Systems DuoSet ELISA for pERK and Total ERK #DYC-1940E, DYC-1018E) added. ELISA plates and standards were prepared according to the standard DuoSet protocols and the relative amounts of pERK to total ERK in each sample calculated according to the standard curve.
In particular, compounds of the invention were tested against the LP-1 cell line (DSMZ no.: ACC 41) derived from human multiple myeloma.
(In general: In an ELISA, binding on a coated surface is turned into a signal by an enzyme label.)

The mark [3] stands for this setting: given as a bound, read-out: IC50 in the FGFR3 assay.
Setting [4] is: LP-1 cell line, given as a bound, read-out: IC50 in LP-1 pERK ELISA.
[5] abbreviates: in vitro kinase assay, 8 μM ATP, read-out: FGFR3 IC50.
Where [6] appears, read: LP-1 cells, FGF-1/heparin stimulation, pERK relative to total ERK, read-out: LP-1 pERK ELISA.

SMILES strings stand for the structures. Structures can show the parent of a compound that is named as a salt. Where two headings read alike, the source gives them in different places.

T1 sequence (P22607 23-806): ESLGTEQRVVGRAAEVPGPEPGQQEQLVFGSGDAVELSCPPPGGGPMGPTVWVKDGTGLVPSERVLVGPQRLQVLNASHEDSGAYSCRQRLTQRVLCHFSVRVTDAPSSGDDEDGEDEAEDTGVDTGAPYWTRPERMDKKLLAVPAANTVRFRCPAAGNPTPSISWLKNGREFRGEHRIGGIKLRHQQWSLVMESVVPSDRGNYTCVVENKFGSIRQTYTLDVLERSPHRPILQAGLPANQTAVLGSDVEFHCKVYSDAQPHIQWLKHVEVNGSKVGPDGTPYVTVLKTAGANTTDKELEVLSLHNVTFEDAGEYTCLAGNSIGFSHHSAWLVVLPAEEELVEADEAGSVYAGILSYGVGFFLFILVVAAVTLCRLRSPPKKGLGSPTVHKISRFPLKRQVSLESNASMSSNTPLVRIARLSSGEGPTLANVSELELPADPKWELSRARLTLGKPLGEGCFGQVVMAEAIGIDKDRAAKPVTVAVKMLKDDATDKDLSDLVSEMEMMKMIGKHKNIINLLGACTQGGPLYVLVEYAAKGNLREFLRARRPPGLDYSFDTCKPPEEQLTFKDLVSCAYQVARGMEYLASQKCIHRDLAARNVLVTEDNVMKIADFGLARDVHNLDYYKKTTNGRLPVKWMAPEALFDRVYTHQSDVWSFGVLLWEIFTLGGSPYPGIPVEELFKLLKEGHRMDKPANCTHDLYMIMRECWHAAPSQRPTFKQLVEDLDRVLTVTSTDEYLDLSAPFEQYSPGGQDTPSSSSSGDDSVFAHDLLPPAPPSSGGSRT

As to `c1cc(Nc2nncs2)cc(-c2cnc3cc(-c4ccnc(OC5CCOCC5)c4)ccn23)c1` [Example 33], the IC50 in experiment [1] (setting [3]) is less than 1000 nM. For the compound `CS(=O)(=O)NCc1cccc(-c2ccn3c(-c4cccc(Nc5nncs5)c4)cnc3c2)c1` [Example 40, N-(3-{3-[3-([1,3,4]Thiadiazol-2-ylamino)-phenyl]-imidazo[1,2-a]pyridin-7-yl}-benzyl)-methanesulfonamide], the IC50 in experiment [1] (setting [3]) is less than 1000 nM. Take `CCS(=O)(=O)N1CCN(c2ccn3c(-c4cccc(Nc5nncs5)c4)cnc3c2)CC1` [Example 21, {3-[7-(4-Ethanesulfonyl-piperazin-1-yl)-imidazo[1,2-a]pyridin-3-yl]-phenyl}-[1,3,4]thiadiazol-2-yl-amine Hydrochloride]: the IC50 in experiment [1] (setting [3]) was less than 1000 nM.

Regarding `c1cc(Nc2nncs2)cc(-c2cnc3cc(N4CCCCC4)ccn23)c1` [Example 24, [3-(7-Piperidin-1-yl-imidazo[1,2-a]pyridin-3-yl)-phenyl]-[1,3,4]thiadiazol-2-yl-amine], the IC50 in experiment [1] (setting [3]) and in experiment [2] (setting [4]) was less than 1000 nM each time. Consider `CCOC(=O)N1CCN(c2ccn3c(-c4cccc(Nc5nncs5)c4)cnc3c2)CC1` [Example 36, 4-{3-[3-([1,3,4]Thiadiazol-2-ylamino)-phenyl]-imidazo[1,2-a]pyridin-7-yl}-piperazine-1-carboxylic acid ethyl ester], for which, in experiment [1] (setting [3]), the IC50 is less than 1000 nM. Take `Nc1ccc(-c2ccn3c(-c4cccc(Nc5nncs5)c4)cnc3c2)cn1` [Example 37, 5-{3-[3-([1,3,4]Thiadiazol-2-ylamino)-phenyl]-imidazo[1,2-a]pyridin-7-yl}-pyridin-2-ylamine Hydrochloride]: the IC50 was less than 1000 nM in experiment [1] (setting [3]) and 2.55 nM in experiment [1] (setting [5]). In the case of `OCc1cccc(-c2ccn3c(-c4cccc(Nc5nncs5)c4)cnc3c2)c1` [Example 35, (3-{3-[3-([1,3,4]Thiadiazol-2-ylamino)-phenyl]-imidazo[1,2-a]pyridin-7-yl}-phenyl)-methanol], in experiment [1] (setting [3]), the IC50 was less than 1000 nM.

For `Cn1ccnc1Nc1cccc(-c2cnc3cc(-c4ccc(F)cc4)ccn23)c1` [Example 34, {3-[7-(4-Fluoro-phenyl)-imidazol[1,2-a]pyridin-3-yl]-phenyl}-(1-methyl-1H-imidazol-2-yl)-amine Hydrochloride], the IC50 was less than 1000 nM in experiment [1] (setting [3]) and 480 nM in experiment [1] (setting [5]). Consider `Nc1cccc(-c2ccn3c(-c4cccc(Nc5nncs5)c4)cnc3c2)c1` [Example 32, {3-[7-(3-Amino-phenyl)-imidazo[1,2-a]pyridin-3-yl]-phenyl}-[1,3,4]thiadiazol-2-yl-amine Hydrochloride], for which the IC50 in experiment [1] (setting [3]) and in experiment [2] (setting [4]) was less than 1000 nM throughout.

Turning to `c1cc(Nc2nncs2)cc(-c2cnc3cc(-c4ccc5c(c4)OCO5)ccn23)c1` [Example 20, [3-(7-Benzo[1,3]dioxol-5-yl-imidazo[1,2-a]pyridin-3-yl)-phenyl]-[1,3,4]thiadiazol-2-yl-amine Formate], the IC50 in experiment [1] (setting [3]) and in experiment [2] (setting [4]) was less than 1000 nM in each case.

`O=C(c1cccc(-c2ccn3c(-c4cccc(Nc5nncs5)c4)cnc3c2)c1)N1CCOCC1` [Example 22, Morpholin-4-yl-(3-{3-[3-([1,3,4]thiadiazol-2-ylamino)-phenyl]-imidazo[1,2-a]pyridin-7-yl}-phenyl)-methanone Hydrochloride]: the IC50 in experiment [1] (setting [3]) was less than 1000 nM. Consider `Fc1ccc(-c2ccn3c(-c4cccc(Nc5nncs5)c4)cnc3c2)cc1` [Example 7, {3-[7-(4-Fluoro-phenyl)-imidazo[1,2-a]pyridin-3-yl]-phenyl}-[1,3,4]thiadiazol-2-yl-amine], for which the IC50 in experiment [1] (setting [3]) was less than 1000 nM; in experiment [1] (setting [5]), 2.2 nM; in experiment [2] (setting [4]), less than 1000 nM; in experiment [2] (setting [6]), 69 nM. With `Cn1nnc(-c2ccn3c(-c4cccc(Nc5nncs5)c4)cnc3c2)n1` [Example 43, {3-[7-(2-Methyl-2H-tetrazol-5-yl)-imidazo[1,2-a]pyridin-3-yl]phenyl}-[1,3,4]thiadiazol-2-yl-amine], the IC50 in experiment [1] (setting [3]) is less than 1000 nM; in experiment [1] (setting [5]), 33.9 nM; in experiment [2] (setting [4]), less than 1000 nM; in experiment [2] (setting [6]), 140 nM. On to `CN1CCN(Cc2cccc(-c3ccn4c(-c5cccc(Nc6nncs6)c5)cnc4c3)c2)CC1` [Example 9, (3-{7-[3-(4-Methyl-piperazin-1-ylmethyl)-phenyl]-imidzao[1,2-a]pyridin-3-yl}-phenyl)-[1,3,4]thiadiazol-2-yl-amine formate salt], for which the IC50 in experiment [1] (setting [3]) and in experiment [2] (setting [4]) was less than 1000 nM throughout. With `Fc1ccc(-c2ccn3c(-c4cccc(Nc5ccncc5)c4)cnc3c2)cc1` [Example 6, {3-[7-(4-Fluoro-phenyl)-imidazo[1,2-a]pyridin-3-yl]-phenyl}-pyridin-4-yl-amine formate salt], in experiment [1] (setting [3]), the IC50 is less than 1000 nM.

As to `Fc1ccc(-c2cnc3c(-c4cc(Nc5nncs5)ccn4)cnn3c2)cc1` [Example 31, {2-[6-(4-Fluoro-phenyl)-pyrazolo[1,5-a]pyrimidin-3-yl]-pyridin-4-yl}-[1,3,4]thiadiazol-2-yl-amine], the IC50 in experiment [1] (setting [3]) is less than 1000 nM; in experiment [1] (setting [5]) it was 350 nM.

On to `Fc1ccc(-c2ccn3c(-c4cccc(Nc5ncns5)c4)cnc3c2)cc1` [Example 39, {3-[7-(4-Fluoro-phenyl)-imidazo[1,2-a]pyridin-3-yl]phenyl}-[1,2,4]thiadiazol-5-yl-amine], for which the figures for the IC50 in experiment [1] (setting [3]) and in experiment [1] (setting [5]) were less than 1000 nM and 115 nM, respectively. `Fc1ccc(-c2ccn3c(-c4cccc(Nc5nnco5)c4)cnc3c2)cc1` [Example 29, {3-[7-(4-Fluoro-phenyl)-imidazo[1,2-a]pyridin-3-yl]phenyl}-[1,3,4]oxadiazol-2-yl-amine]: the values for the IC50 in experiment [1] (setting [3]) and in experiment [1] (setting [5]) were less than 1000 nM and 11 nM, respectively.

On to `c1cc(Nc2nncs2)cc(-c2cnc3cc(N4CCOCC4)ccn23)c1` [Example 19, [3-(7-Morpholin-4-yl-imidazo[1,2-a]pyridin-3-yl)-phenyl]-[1,3,4]thiadiazol-2-yl-amine], for which, in experiment [1] (setting [3]), the IC50 is less than 1000 nM.

Regarding `Cn1cc(-c2ccn3c(-c4cccc(NCc5ccccc5)c4)cnc3c2)cn1` [Example 42, Benzyl-{3-[7-(1-methyl-1H-pyrazol-4-yl)-imidazo[1,2-a]pyridin-3-yl]phenyl}-amine], the IC50 in experiment [1] (setting [3]) is less than 1000 nM. Consider `Nc1nc(Nc2cccc(-c3cnc4cc(-c5ccc(F)cc5)ccn34)c2)n[nH]1` [Example 27, N*3*-(3-[7-(4-Fluoro-phenyl)-imidazo[1,2-a]pyridin-3-yl]-phenyl}-1H-[1,2,4]triazole-3,5-diamine], for which the IC50 was less than 1000 nM in experiment [1] (setting [3]) and 130 nM in experiment [1] (setting [5]). Consider `Fc1ccc(-c2ccc3c(c2)ncn3-c2cccc(Nc3nncs3)c2)cc1` [Example 23, {3-[5-(4-Fluoro-phenyl)-benzoimidazol-1-yl]-phenyl}-[1,3,4]thiadiazol-2-yl-amine], for which the IC50 in experiment [1] (setting [3]) was less than 1000 nM. As for `c1ccc(Nc2cccc(-c3cnc4cc(-c5cccc(CN6CCOCC6)c5)ccn34)c2)cc1` [Example 8, {3-[7-(3-Morpholin-4-ylmethyl-phenyl)-imidazo[1,2-a]pyridin-3-yl]-phenyl}-phenyl-amine], the IC50 in experiment [1] (setting [3]) is less than 1000 nM. Consider `Fc1ccc(-c2ccn3c(-c4cccc(Nc5cnccn5)c4)cnc3c2)cc1` [Example 1, {3-[7-(4-Fluoro-phenyl)-imidazo[1,2-a]pyridin-3-yl]-phenyl}-pyrazin-2-yl-amine], for which, in experiment [1] (setting [3]), the IC50 was less than 1000 nM. With `Clc1ccn2c(-c3cccc(Nc4cnn[nH]4)c3)cnc2c1` [the product of Procedure G1, [3-(7-Chloro-imidazo[1,2-a]pyridin-3-yl)-phenyl]-(3H-[1,2,3]triazol-4-yl)-amine], the IC50 in experiment [1] (setting [3]) was less than 1000 nM. With `Clc1ccn2c(-c3cccc(NCc4ccccc4)c3)cnc2c1` [the product of Procedure F8, Benzyl-[3-(7-chloro-imidazo[1,2-a]pyridin-3-yl)-phenyl]-amine], in experiment [1] (setting [3]), the IC50 is less than 1000 nM. `Cc1ccn2c(-c3cccc(Nc4nncs4)c3)cnc2c1` [Example 41, [3-(7-Methyl-imidazo[1,2-a]pyridin-3-yl)phenyl]-[1,3,4]thiadiazol-2-yl-amine Hydrochloride]: in experiment [1] (setting [3]), the IC50 is less than 1000 nM. `CC(=O)N1CCN(c2ccn3c(-c4cccc(Nc5nncs5)c4)cnc3c2)CC1` [Example 38, 1-(4-{3-[3-([1,3,4]Thiadiazol-2-ylamino)-phenyl]-imidazo[1,2-a]pyridin-7-yl}-piperazin-1-yl)-ethanone]: in experiment [1] (setting [3]), the IC50 is less than 1000 nM.
